Experimental data published in patent US20230002359A1, “PESTICIDALLY ACTIVE FUSED BICYCLIC HETEROAROMATIC COMPOUNDS” (priority 2019, published 2023).

Key:
[1] = test system: Diabrotica Balteata (Corn Root Worm); experiment: Example B1: Diabrotica balteata (corn root worm), maize sprouts sprayed, L2 larvae; assay type: in vivo; details: 96 h, application rate of 200 ppm, 4 days after infestation, L2 larvae, read-out: control in at least one of the two categories (mortality or growth inhibition)
Summary of the method: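 Read-out is mortality plus growth inhibition relative to untreated controls, assessed 4 days after infestation. Sprouts resting on agar are sprayed with aqueous solutions derived from 10′000 ppm DMSO stocks and left to dry before L2 larvae (6 to 10 per well) are added.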

[2] = test system: Euschistus heros (Neotropical Brown Stink Bug); experiment: Example B2: Euschistus heros (neotropical brown stink bug), soybean leaves sprayed, N2 nymphs; assay type: in vivo; details: 120 h, application rate of 200 ppm, 5 days after infestation, N2 nymphs, read-out: control in at least one of the two categories (mortality or growth inhibition)
Procedure: Soybean leaves on agar in 24-well microtiter plates were sprayed with aqueous test solutions prepared from 10′000 ppm DMSO stock solutions. After drying the leaves were infested with N2 nymphs. The samples were assessed for mortality and growth inhibition in comparison to untreated samples 5 days after infestation.

[3] = test system: Chilo suppressalis (Striped Rice Stemborer); experiment: Example B3: Chilo suppressalis (striped rice stemborer), artificial diet, L2 larvae; assay type: in vivo; details: 144 h, application rate of 200 ppm, 6 days after infestation, L2 larvae, read-out: control in at least one of the three categories (mortality, anti-feedant effect, or growth inhibition)
Summary of the method: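 Artificial diet in wells was treated with aqueous test solutions diluted from 10'000 ppm DMSO stocks, dried, then infested with 6-8 L2 larvae per well. Mortality, anti-feeding effect and growth inhibition were scored against untreated samples 6 days after infestation; control means any category exceeds the untreated sample.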

[4] = test system: Plutella xylostella (Diamond Back Moth); experiment: Example B4: Plutella xylostella (diamond back moth), artificial diet, eggs, 24-well; assay type: in vivo; details: 192 h, application rate of 200 ppm, 8 days after infestation, eggs, read-out: control in at least one of the two categories (mortality or growth inhibition)
Procedure: 24-well microtiter plates with artificial diet were treated with aqueous test solutions prepared from 10′000 ppm DMSO stock solutions by pipetting. After drying, Plutella eggs were pipetted through a plastic stencil onto a gel blotting paper and the plate was closed with it. The samples were assessed for mortality and growth inhibition in comparison to untreated samples 8 days after infestation.

[5] = test system: Myzus persicae (Green Peach Aphid); experiment: Example B5: Myzus persicae (green peach aphid) feeding/contact activity, sunflower leaf discs; assay type: in vivo; details: foliar, 144 h, application rate of 200 ppm, 6 days after infestation
Procedure: Sunflower leaf discs were placed onto agar in a 24-well microtiter plate and sprayed with aqueous test solutions prepared from 10′000 ppm DMSO stock solutions. After drying, the leaf discs were infested with an aphid population of mixed ages. The samples were assessed for mortality 6 days after infestation.

[6] = test system: Myzus persicae (Green Peach Aphid); experiment: Example B6: Myzus persicae (green peach aphid) intrinsic activity, sucrose solution; assay type: in vivo; details: 120 h, test rate of 12 ppm, 5 days after infestation, intrinsic activity, read-out: mortality
Summary of the method: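 Compounds from 10′000 ppm DMSO stocks were mixed into sucrose solution in 24-well plates sealed with Parafilm. Aphid-infested pea seedlings were set on the membrane and the plate inverted so aphids fed through it. Mortality scored 5 days after infestation.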

[7] = test system: Spodoptera littoralis (Egyptian Cotton Leaf Worm); experiment: Example B7: Spodoptera littoralis (Egyptian cotton leaf worm), cotton leaf discs sprayed, L1 larvae; assay type: in vivo; details: foliar, 72 h, application rate of 200 ppm, 3 days after infestation, L1 larvae, read-out: control in at least one of the three categories (mortality, anti-feedant effect, or growth inhibition)
Summary of the method: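 Five L1 larvae per sprayed, dried cotton leaf disc on agar. Activity is counted when mortality, anti-feedant effect or growth inhibition exceeds the untreated sample at day 3.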

Row | Structure (SMILES) | melting point | percent control (mortality or growth inhibition) at 200 ppm [1] | percent control (mortality or growth inhibition) at 200 ppm [2] | percent control (mortality, anti-feedant effect or growth inhibition) at 200 ppm [3] | percent control (mortality or growth inhibition) at 200 ppm [4] | mortality at 200 ppm [5] | mortality at 12 ppm [6] | percent control (mortality, anti-feedant effect or growth inhibition) at 200 ppm [7]
1 | C[C@@H](c1ncnn1-c1ncccn1)N(C)c1c(C#N)cnc2c(C(F)(F)F)cc(C(F)(F)F)cc12 | 84 to 86 °C |  |  |  |  |  |  | 
2 | C[C@@H](c1ncnn1-c1ccc(-c2ncon2)cn1)N(C)c1ncnc2c(C(F)(F)F)cc(Cl)cc12 | 144 to 146 °C |  |  |  |  |  |  | 
3 | CC(Nc1ncnc2c(Br)cc(C(F)(F)F)cc12)c1ncnn1-c1ccc(Br)cn1 (stereo not shown) | 280 to 282 °C |  |  |  |  |  |  | 
4 | CC(c1ncnn1-c1ncccn1)N(CC1CC1)c1nc(Cl)nc2c(Cl)cc(C(F)(F)F)cc12 (stereo not shown) | 81 to 83 °C |  |  |  |  |  |  | 
5 | CC(c1nccnc1-c1ccc(C#N)cn1)N(CC1CC1)c1ncnc2c(C(F)(F)F)cc(Br)cc12 (stereo not shown) | 251 to 253 °C |  |  |  |  |  |  | 
6 | C[C@H](c1ncnn1-c1ccc(C#N)cn1)N(C)c1ncnc2c(C(F)(F)F)cc(Br)cc12 [P.203, 6-[5-[(1R)-1-[[6-bromo-8-(trifluoromethyl)quinazolin-4-yl]-methyl-amino]ethyl]-1,2,4-triazol-1-yl]pyridine-3-carbonitrile] |  | ≥ 80% | ≥ 80% | ≥ 80% | ≥ 80% | ≥ 80% | ≥ 80% | ≥ 80%
7 | C[C@@H](c1ncnn1-c1ccc(C#N)cn1)N(C)c1ncnc2c(SC(F)(F)F)cc(C(F)(F)F)cc12 [P.215, 6-[5-[(1S)-1-[methyl-[6-(trifluoromethyl)-8-(trifluoromethylsulfanyl)quinazolin-4-yl]amino]ethyl]-1,2,4-triazol-1-yl]pyridine-3-carbonitrile] |  | ≥ 80% | ≥ 80% | ≥ 80% | ≥ 80% | ≥ 80% | ≥ 80% | ≥ 80%
8 | C[C@@H](c1ncnn1-c1ncccn1)N(C)c1ncnc2c(I)cc(C(F)(F)F)cc12 [P.219, 8-iodo-N-methyl-N-[(1S)-1-(2-pyrimidin-2-yl-1,2,4-triazol-3-yl)ethyl]-6-(trifluoromethyl)quinazolin-4-amine] |  | ≥ 80% | ≥ 80% | ≥ 80% | ≥ 80% | ≥ 80% | ≥ 80% | ≥ 80%
9 | CC(c1ncnn1-c1ccc(C#N)cn1)N(C)c1ncnc2c(C(F)(F)F)cc(OC(F)(F)F)cc12 (stereo not shown) [P.221, 6-[5-[1-[methyl-[6-(trifluoromethoxy)-8-(trifluoromethyl)quinazolin-4-yl]amino]ethyl]-1,2,4-triazol-1-yl]pyridine-3-carbonitrile] |  | ≥ 80% | ≥ 80% | ≥ 80% | ≥ 80% | ≥ 80% | ≥ 80% | ≥ 80%
10 | C[C@@H](c1ncnn1-c1ccc(C#N)cn1)N(C)c1ncnc2c(C(=O)C3CC3)cc(C(F)(F)F)cc12 [P.227, 6-[5-[(1S)-1-[[8-(cyclopropanecarbonyl)-6-(trifluoromethyl)quinazolin-4-yl]-methyl-amino]ethyl]-1,2,4-triazol-1-yl]pyridine-3-carbonitrile] |  | ≥ 80% | ≥ 80% | ≥ 80% | ≥ 80% | ≥ 80% | ≥ 80% | ≥ 80%
11 | C[C@@H](c1ncnn1-c1ccc(C#N)cn1)N(C)c1ncnc2c(I)cc(C(F)(F)F)cc12 [P.228, 6-[5-[(1S)-1-[[8-iodo-6-(trifluoromethyl)quinazolin-4-yl]-methyl-amino]ethyl]-1,2,4-triazol-1-yl]pyridine-3-carbonitrile] |  | ≥ 80% | ≥ 80% | ≥ 80% | ≥ 80% | ≥ 80% | ≥ 80% | ≥ 80%
12 | CC(c1ncnn1-c1ncccn1)N(C)c1ncnc2c(OC(F)F)cc(Br)cc12 (stereo not shown) [P.245, 6-bromo-8-(difluoromethoxy)-N-methyl-N-[1-(2-pyrimidin-2-yl-1,2,4-triazol-3-yl)ethyl]quinazolin-4-amine] |  | ≥ 80% | ≥ 80% | ≥ 80% | ≥ 80% | ≥ 80% | ≥ 80% | ≥ 80%
13 | CC(Nc1ncnc2c(OC(F)(F)F)cc(Br)cc12)c1ncnn1-c1ncccn1 (stereo not shown) [P.248, 6-bromo-N-[1-(2-pyrimidin-2-yl-1,2,4-triazol-3-yl)ethyl]-8-(trifluoromethoxy)quina-zolin-4-amine] |  | ≥ 80% | ≥ 80% | ≥ 80% | ≥ 80% | ≥ 80% | ≥ 80% | ≥ 80%
14 | C[C@@H](c1ncnn1-c1ccc(C#N)cn1)N(CC1CC1)c1ncnc2c(C(F)(F)F)cc(Cl)cc12 [P.264, 6-[5-[(1S)-1-[[6-chloro-8-(trifluoromethyl)quinazolin-4-yl]-(cyclopropylmethyl)amino]ethyl]-1,2,4-triazol-1-yl]pyridine-3-carbonitrile] |  | ≥ 80% | ≥ 80% | ≥ 80% | ≥ 80% | ≥ 80% | ≥ 80% | ≥ 80%
15 | C[C@@H](c1ncnn1-c1ncccn1)N(CC1CC1)c1ncnc2c(C(F)(F)F)cc(Cl)cc12 [P.265, 6-chloro-N-(cyclopropylmethyl)-N-[(1S)-1-(2-pyrimidin-2-yl-1,2,4-triazol-3-yl)ethyl]-8-(trifluoromethyl)quinazolin-4-amine] |  | ≥ 80% | ≥ 80% | ≥ 80% | ≥ 80% | ≥ 80% | ≥ 80% | ≥ 80%
16 | C[C@@H](c1ncnn1-c1ccc(C#N)cn1)N(CC1CC1)c1ncnc2c(Cl)cc(C(F)(F)F)cc12 [P.271, 6-[5-[(1S)-1-[[8-chloro-6-(trifluoromethyl)quinazolin-4-yl]-(cyclopropylmethyl)amino]ethyl]-1,2,4-triazol-1-yl]pyridine-3-carbonitrile] |  | ≥ 80% | ≥ 80% | ≥ 80% | ≥ 80% | ≥ 80% | ≥ 80% | ≥ 80%
